US20060088874A1, “Methods and kits for detecting mutations” (Promega Corporation, priority 2004, published 2006)
Like-named read-outs stand apart in the source and are kept apart here.

How the values were obtained:
[1] = test system: microsatellite markers in human fibroblast cell line #AG01522
Experimental: human fibroblast cell line #AG01522 from Coriell Cell Repository were cultured in MEM Eagle-Earle BSS 2× concentration of essential and non-essential amino acids and vitamins with 2 mM L-glutamine, 10% fetal bovine serum, 0.5 Units/ml of penicillin, 0.5 μg/ml of streptomycin. Cell cultures were grown at 37° C. and 5% CO2 under sterile conditions and split at a ratio of 1:5 when cells were confluent by releasing cells with trypsin-EDTA treatment. […] Cells were pelleted and DNA extracted.
Mutant alleles were identified by small-pool PCR as described in Example B above using primer pairs specific for microsatellite markers (Tables 2 and 7) including: (1) mononucleotide repeat markers (NR-21, NR-24, BAT-25, BAT-26 and MONO-27); (2) extended mononucleotide repeat markers (hBAT-51d, hBAT-52a, hBAT-53c, hBAT59a, hBAT-60a and hBAT-62); (3) tetranucleotide repeat markers on autosomal chromosomes (D7S3070, D7S3046, D7S1808, D10S1426 and D3S2432); (4) tri-, tetra- and penta-nucleotide repeats on the Y chromosome (DYS391, DYS389 I, DYS389 II, DYS438, DYS437, DYS19, DYS392, DYS393, DYS390, and DYS385); and (5) penta-nucleotide repeats Penta B, C, D, and E (Bacher, et al. 1999.

[2] = test system: mtDNA (Δ-mtDNA4977 deletion); format: in vivo, C57BL/6 mice; settings: old age paraquat-treated group, three mice
Experimental: […] mice were housed and inbred at the University of Wisconsin, with an average life span ˜30 months. Four groups of three mice were included in the study: 5-month old mice (young control or YC); 5-month old mice treated with paraquat; 24-month old mice (old age); and 24-month old mice treated with paraquat. Paraquat-treated animals received a single intraperitoneal injection of 50 mg/kg body weight dissolved in PBS 24 hours after their last feeding. Each mouse was sacrificed by cervical dislocation.
The entire liver from each mouse was dissected, washed with PBS, placed in a 1.5 ml Ependorf tube, snap frozen in liquid nitrogen, and stored at −80° C. DNA was prepared from the mouse liver tissue by using the DNA-IQ Tissue and Hair Extraction Kit (Promega Corporation, Madison, Wis.) and was quantified using the PicoGreen dsDNA Quantitative Kit (Molecular Probes, Eugene, Oregon) following manufacturers protocols.
Based on the mouse mtDNA sequence, four fluorescence labeled primer pairs were designed to detect both wildtype sequences and mtDNA deletions. […]
Separation and detection of amplified fragments was performed on an ABI PRISM® 3100 Genetic Analyzer following the manufacturer's protocol (Applied Biosystems, Foster City, Calif.). Data was analyzed with the GeneScan and Genotyper computer software packages (Applied Biosystems). […]

[3] = test system: mononucleotide repeat loci (mBat markers); format: in vivo, C57BL/6 mice

OO [hydrogen peroxide]
mutations in extended mononucleotide repeats, Y-STRs and A-rich pentanucleotide repeats ([1]; cells exposed to 0.1 to 1.2 mM hydrogen peroxide for 1 hour, 3 days recovery): Mutations were detected | mutations in short mononucleotide repeat markers NR-21, NR-24, BAT-25, BAT-26 or MONO-27 ([1]; cells exposed to hydrogen peroxide, 0/1,526 alleles): No mutations

C[n+]1ccc(-c2cc[n+](C)cc2)cc1 [Paraquat]
Δ-mtDNA4977 detected (mice of group) [2]: All three mice in the old age paraquat-treated group showed Δ-mtDNA4977 | Mutation Freq ([3]; mBat-24, Old w/Paraquat): 0.000 | # Mutants ([3]; mBat-24, Old w/Paraquat, 318 alleles): 0 | Mutation Freq ([3]; mBat-24, Young w/ Paraquat): 0.002 | # Mutants ([3]; mBat-24, Young w/ Paraquat, 648 alleles): 1 | Mutation Freq ([3]; mBat-26, Old w/Paraquat): 0.000 | # Mutants ([3]; mBat-26, Old w/Paraquat, 340 alleles): 0 | Mutation Freq ([3]; mBat-26, Young w/ Paraquat): 0.000 | # Mutants ([3]; mBat-26, Young w/ Paraquat, 457 alleles): 0 | Mutation Freq ([3]; mBat-30, Old w/Paraquat): 0.000 | # Mutants ([3]; mBat-30, Old w/Paraquat, 344 alleles): 0 | Mutation Freq ([3]; mBat-30, Young w/ Paraquat): 0.000 | # Mutants ([3]; mBat-30, Young w/ Paraquat, 704 alleles): 0 | Mutation Freq ([3]; mBat-37, Old w/Paraquat): 0.000 | # Mutants ([3]; mBat-37, Old w/Paraquat, 306 alleles): 0 | Mutation Freq ([3]; mBat-37, Young w/ Paraquat): 0.001 | # Mutants ([3]; mBat-37, Young w/ Paraquat, 992 alleles): 1 | Mutation Freq ([3]; mBat-49, Old w/Paraquat): 0.000 | # Mutants ([3]; mBat-49, Old w/Paraquat, 194 alleles): 0 | Mutation Freq ([3]; mBat-51a, Old w/Paraquat): 0.000 | # Mutants ([3]; mBat-51a, Old w/Paraquat, 240 alleles): 0 | Mutation Freq ([3]; mBat-51b, Old w/Paraquat): 0.000 | # Mutants ([3]; mBat-51b, Old w/Paraquat, 186 alleles): 0 | Mutation Freq ([3]; mBat-52, Old w/Paraquat): 0.000 | # Mutants ([3]; mBat-52, Old w/Paraquat, 44 alleles): 0 | Mutation Freq ([3]; mBat-59, Old w/Paraquat): 0.013 | # Mutants ([3]; mBat-59, Old w/Paraquat, 448 alleles): 6 | Mutation Freq ([3]; mBat-59, Young w/ Paraquat): 0 | # Mutants ([3]; mBat-59, Young w/ Paraquat, 636 alleles): 4 | Mutation Freq ([3]; mBat-61a, Old w/Paraquat): 0.005 | # Mutants ([3]; mBat-61a, Old w/Paraquat, 428 alleles): 2 | Mutation Freq ([3]; mBat-64, Old w/Paraquat): 0.019 | # Mutants ([3]; mBat-64, Old w/Paraquat, 412 alleles): 8 | Mutation Freq ([3]; mBat-64, Young w/ Paraquat): 0 | # Mutants ([3]; mBat-64, Young w/ Paraquat, 443 alleles): 1 | Mutation Freq ([3]; mBat-66, Old w/Paraquat): 0.018 | # Mutants ([3]; mBat-66, Old w/Paraquat, 448 alleles): 8 | Mutation Freq ([3]; mBat-66, Young w/ Paraquat): 0 | # Mutants ([3]; mBat-66, Young w/ Paraquat, 592 alleles): 3 | Mutation Freq ([3]; mBat-67, Old w/Paraquat): 0.051 | # Mutants ([3]; mBat-67, Old w/Paraquat, 394 alleles): 20 | Mutation Freq ([3]; mBat-67, Young w/ Paraquat): 0 | # Mutants ([3]; mBat-67, Young w/ Paraquat, 334 alleles): 1 | mutations in loci mBAT-24, mBAT-26, mBat-30, or mBAT-37 ([3]; old paraquat-treated group, out of 1608 alleles): no mutations | mutations in mononucleotide repeat alleles assayed, loci mBAT-59, mBAT-64, mBAT-66 or mBAT-67 ([3]; paraquat-treated old age group, SP-PCR, (25/1649)): over 1.8%
